Publication PMC5520492, “Inhibition of DNA2 nuclease as a therapeutic strategy targeting replication stress in cancer cells” (Oncogenesis, 2017)
“Also recorded” adds a separate entry of the source.

Experiments:
U2OS cells = assay: Cell-based viability/proliferation screen, DAPI staining and automated microscopy; set-up: species or system human; conditions: for IC50: Homo sapiens, 10 pM to 10 μM, DAPI staining, read-out: IC50 from Screening Cell Based
Protocol: The biological effectiveness of the 39 compounds selected by re-screening was determined by measuring their half maximal inhibitory concentration (IC50) biochemically and in a cell-based system using the 384-well platform (Supplementary Table S2). […] We conducted the viability assay in duplicate on three separate occasions using a concentration range of 10 pM to 10 μM for each compound. Cell proliferation was determined using 4,6-diamidino-2-phenylindole staining and microscopy.
In addition, a second dark quencher ZEN (N,N-diethyl-4-(4-nitronaphthalen-1-ylazo)-phenylamine, absorption max.=532 nm) is placed between 9th and 10th base (Figure 2a). Initial screen, it was performed with yDna2.[22] Then, the top candidate compounds were tested on hDNA2. Identical reaction conditions were used for assaying the nuclease activity of yDna2 and hDNA2. […] The reaction buffer was 20 mM HEPES/NaOH, pH 7.5, 60 mM KCl, 1 mM DTT, 100 μg/ml bovine serum albumin and 0.05% Triton X-100. The nuclease assay was initiated by adding MgCl2 (3 mM final concentration). T5 nuclease was assayed in the buffer (50 mM potassium acetate, pH 7.9, 20 mM Tris-acetate, 10 mM magnesium acetate and 1 mM DTT) provided by the vendor (NEB, Ipswich, MA, USA). The concentration of the fluorogenic substrate was 0.1 μM. The optimal amount of yDna2, hDNA2 and T5 nuclease was determined by utilizing the Kaleidagraph software (Reading, PA, USA) to fit the data according to Michaelis Menton Kinetics (V=V0+Vmax*x/(Km+x)). […] All the compounds were dissolved in DMSO and DMSO alone was used as control; the final concentration of DMSO was at 3.33% for protein-based assay and 0.1% for cell-based assay. The Z’ value was calculated as previously described.[50] Cell proliferation was determined using 4,6-diamidino-2-phenylindole staining followed by high-throughput microscopy in a 384-well plate setup. In brief, cells were fixed with formaldehyde, washed and stained with 4,6-diamidino-2-phenylindole and the number of nuclei in each well counted by automated microscopy. The data were analyzed as described.[51]

U2OS SSA reporter cells = assay: Single strand annealing (SSA) GFP reporter assay; format: cell-based, human; conditions: 24-h treatment
Description: The DR-green fluorescent protein, pCAGGS and pCBASce plasmids were kindly provided by Dr Maria Jasin (Memorial Sloan-Kettering Cancer Center, New York, NY, USA). U2OS cells containing a single copy of the HR repair reporter substrate DR-green fluorescent protein were generated as previously described.[48] Single stand annealing reporter cells were kindly provided by Dr Jeremy Stark (Beckman Research Institute of the City of Hope, Duarte, CA, USA).[49] Details in Supplementary Materials and Methods.
Figure S6. NSC-105808 reduces DSB repair by SSA. Cells were transfected with EGFP or I-SceI plasmids for 24 hrs and then cultured for an additional 48 hr before analysis by flow cytometry (top). Treatment with NSC-105808 was for 24 hrs prior to flow cytometry. Bar graph showing SSA efficiency in cells treated with NSC-105808 as compared to control cells treated with DMSO. The average data from three independent experiments are shown, with the error bars representing standard deviation (n=3, bottom).
The GFP expressing plasmid (pEGFP-C1) was used for transfection efficiency control. Cells were transfected with the pCBASce plasmid. […] Efficiency of HR and SSA was calculated by normalizing I-SceI-induced GFP expression with EGFP transfection-induced GFP expression. […]

[1] = test system: MCF10AT1, MCF10-DCIS, MCF10CA1a versus MCF10A cells; assay: MTT proliferation, MCF10A progression series; format: cell-based, human; conditions: 48-h treatment
Protocol: Figure 5 Oncogene induction enhances sensitivity of cancer cells to NSC-105808. (a-e) Graphs showing proliferation of indicated cell lines in response to a 48-h treatment with the indicated concentrations of NSC-105808. Proliferation relative to cells treated with vehicle alone was determined by the 3-(4,5-dimethylthiazol-2-yl)-2,5-diphenyltetrazolium bromide (MTT) assay. Each value represents the mean±s.e.m. from three independent experiments. (a) Proliferation of control pancreatic epithelial cells DT-PD59 and transformed pancreatic cancer cells AsPC-1 and PANC-1. (b) Proliferation of normal breast epithelial cells MCF10A and breast cancer cells Hs578T and BT549. (c) Proliferation of MCF10A cells with or without H-Ras expression. H-Ras was induced with doxycycline (2 μg/ml). […]
Cell proliferation was measured by 3-(4,5-dimethylthiazol-2-yl)-2,5-diphenyltetrazolium bromide (Sigma) reduction (Supplementary Materials and Methods).
To determine the cell proliferation rate, 1000 cells/well were seeded in a 96-well plate in a total volume of 100 µl in triplicate in each experiment. […] Plates were read at 490 nm and 650 nm (background) in a
microplate reader (Molecular Devices). After the subtraction of background, cell viability was calculated as fold change relative to control cells.

DNA2 protein level = assay: Western blot of cellular DNA2 protein level; format: cell-based, human; conditions: U2OS, PANC-1, Hs578T; up to 12 hrs
Protocol: Figure S8. Analysis of DNA2 protein levels in cells treated with NSC-105808. U2OS (a), PANC-1 (b) and Hs578T (c) cells were treated with the indicated concentrations of NSC-105808 for 4 hours (right) or with a single concentration of NSC-105808 (0.3 µM for U2OS and Hs578T cells; 0.6 µM for PANC-1 cells) for 0, 4, 8, or 12 hrs (left). The results were quantified and are shown below each panel, with the error bars representing the mean ± SD of three independent experiments.

Row | Structure (SMILES) | IC50 (U2OS cells) | DSB repair by single stand annealing (U2OS SSA reporter cells) | Sensitivity of cell lines with oncogene activation compared with MCF10A control [1] | Effect of longer exposure on cells (U2OS cells; exposure >48 h) | Impact on cellular level of DNA2 protein (DNA2 protein level)
1 | O=C1C(=O)c2cc([N+](=O)[O-])ccc2-c2ccccc21 [NSC-5195242, 2-nitrophenanthrene-9,10-dione] | 1 µM |  |  |  | 
2 | NC1=C(Br)C(=O)c2ncccc2C1=O [NSC-105808, 6-amino-7-bromoquinoline-5,8-dione] | 2.7 µM | significantly reduced | more sensitive | causes cell death | No statistically significant difference; also recorded: no impact
